Here are results for 1 molecule from patent US8815830B2, “Nucleosides with antiviral and anticancer activity” (Regents of the University of Minnesota, priority 2004, dated 2014).

This assay has as its system CCRF-CEM cells. As to the kind of experiment: Test C: anti-cancer assay, CCRF-CEM cell viability by MTS reagent. It counts as cell-based, human. As to conditions: 48 hr incubation at 37° C., MTS reagent 4 hr, absorbance at 490 nm, triplicate. How it is done:
The anti-cancer properties of the compounds of the invention can be evaluated using the following assay.
CCRF-CEM cells were grown in medium containing RPMI 1640 supplemented with 10% heat-inactivated fetal bovine serum, penicillin (124 units/ml of medium) and streptomycin (0.125 mg/ml of medium). A stock solution of […] was made using Trypan Blue Dye Exclusion Method as a means of counting the cells. The following concentrations of test compounds were made: 250, 200, 100, 10, 1, 0.1, 0.01 and 0.001 μM. The cell stock (50 μl, 5×10^4 cells) was incubated with 50 μl of each of the compounds in triplicate in a 96-well plate. The cells were incubated with the compound at 37° C. in a 10% CO2-90% air environment for 48 hr. A negative control was also done where the cells were incubated in drug-free medium.
Cell viability was determined by adding 20 μl of MTS reagent and incubating the cells for 4 hr after which the absorbance was found at 490 nm.

SMILES strings stand for the structures.

`Nc1ncnc2c1ncn2[C@@H]1O[C@H](CO)[C@@H](O)[C@@H]1O` [Ara-A, 9-beta-D-arabinofuranosyladenosine]: the IC50 was 384 ± 134 µM.

By IC50 is commonly meant the concentration that gives 50% inhibition.
